Data on four molecules can be found in patent US20230159583A1, “COMPOUND FOR TREATING GOUT, PREPARATION METHOD THEREFOR, AND USE THEREOF” (Huazhong Pharmaceutical Co., Ltd., priority 2020, published 2023).

Read-outs that look alike come from different tables or passages of the source.

Common to all, as to format: in vivo
Data set [1] has as its system carrageenan-induced mouse paw swelling. As to the kind of experiment: carrageenan-induced mouse paw swelling model. As to conditions: for Circumference of the paw after administration: 180 min after onset of inflammation (0.5% carrageenan); for inhibition in vivo at 0.26 mg/kg / inhibition in vivo at 13 mg/kg / inhibition in vivo at 130 mg/kg / change in vivo at 130 mg/kg: Mus musculus, po, 3 h; for inhibition in vivo at 0.26 mg/kg: dosage 0.26 mg/kg; for inhibition in vivo at 0.26 mg/kg / inhibition in vivo at 13 mg/kg / inhibition in vivo at 130 mg/kg: read-out: Swelling inhibition rate; for inhibition in vivo at 13 mg/kg: dosage 13 mg/kg; for change in vivo at 130 mg/kg: read-out: Swelling degree. On the procedure: The anti-inflammatory effects of the compounds prepared in the above Examples were detected using a carrageenan-induced mouse paw swelling model, and the control sample was methylprednisolone:
Carrageenan-induced mouse paw swelling model is a classical acute inflammation model commonly used for evaluating or screening anti-inflammatory effects of drugs. When carrageenan is injected into the paw of mice, a series of reactions similar to human acute inflammation such as local capillary dilatation, increased vascular permeability, exudation and edema can be caused, so the model can be widely used in the evaluation of new drugs.
Reference for experimental method: Yang Huan, Cheng Xiao, Wang Yuehua, Du Guanhua. Effects of esculin on the swelling of toes and inflammation induced by carrageenan in mice [J]. Chinese Journal of New Drugs, 2016(25):2322.
On the day of the experiment, the circumference of right hind paw (cm) of each mouse was measured firstly, and then, after the onset of inflammation, the circumference of right hind paw was measured so that the difference of the circumferences of the paws before and after inflammation was swelling degree, and the swelling inhibition rate of paw (swelling inhibition rate %=(C−T)/C*100%); C=swelling rate of the control group %, and T=swelling rate of the treatment group) was calculated.
(2) Gavage administration was performed once a day for seven consecutive days. The circumference of the right hind paw was marked and measured before the last administration, and the average value of the two measurements was taken as the standard. 30 min after the last administration, 20 μL/mice of 0.5% carrageenan was injected into the right hind ankle of the mice to induce inflammation, and the circumference of paw was measured 180 min after the onset of inflammation. […]

The subject of another data set is ICR mice. As to conditions: p.o. As to the method: The experiment was designed according to the “Technical Guideline for Acute Toxicity Test of Chemical Drugs” issued by the State Food and Drug Administration in March 2005. The doses administered were 4 g/kg, 4.91 g/kg, 6.14 g/kg, 7.68 g/kg, 9.6 g/kg, 12 g/kg, and 15 g/kg (the dose could be adjusted according to the actual test results), 12 ICR mice per dose group. If the administration volume is greater than 0.5 ml, it is better to perform the drug administration in two or more times (Note: according to the national standard GB 15193.3-2014, if multiple drug administrations are required, the time interval should be 4 h to 6 h each time, and the patient should be fasted on the day before drug administration).

Data set [2] relates to rat paw swelling induced by monosodium urate (MSU). Put plainly: rat paw swelling model induced by monosodium urate (MSU). The note with it: for inhibition in vivo at 90 mg/kg / inhibition in vivo at 0.36 mg/kg / inhibition in vivo at 1.8 mg/kg / inhibition in vivo at 9 mg/kg / change in vivo at 90 mg/kg: Rattus norvegicus, po; for inhibition in vivo at 90 mg/kg / inhibition in vivo at 0.36 mg/kg / inhibition in vivo at 1.8 mg/kg / inhibition in vivo at 9 mg/kg: 1 h, read-out: Swelling inhibition rate; for inhibition in vivo at 0.36 mg/kg: dosage 0.36 mg/kg; for inhibition in vivo at 1.8 mg/kg: dosage 1.8 mg/kg; for inhibition in vivo at 9 mg/kg: dosage 9 mg/kg; for change in vivo at 90 mg/kg: read-out: Swelling degree; for Mean volume of paw after administration: 1 h after onset of inflammation (50 μL 2% MSU). From the text:
Gout is a disease unique to human, and gouty arthritis is an inflammatory reaction caused by the deposition of monosodium urate (MSU) in local joint tissues. Since purine metabolism pathways in some mammals such as mice and rabbits are different from those in humans, it is impossible to construct a gouty arthritis model by the method of interfering with purine metabolism disorders, so the most direct method for causing gouty arthritis is to directly inject MSU into the joint cavity of the model animal. The model is only used for simulating local joint inflammation of gout, is suitable for observation of local arthritis symptoms, is a common method for screening anti-inflammatory effects of gout drugs at present, and has the advantages of stability, easy operation and the like. (Reference: Li Na, Hua Long, and Yuan Hui. Research progress of gout animal models [J]. Medical theory and practice, 2016(24).
The anti-gout effect of the compound prepared in the above Example was detected by using a rat paw swelling model induced by monosodium urate (MSU), and the control sample was methylprednisolone.
Experimental method: MSU was used as an inflammatory agent, injected subcutaneously into the hind paws of rats to cause paw swelling, and then the volume of the paws was measured, and the swelling rates and swelling inhibition rates of the treatment group and the control group were compared. On the day of the experiment, the volume of right hind paw (ml) of each rat was measured firstly, and then after the onset of inflammation, the volume of right hind paw was measured so that the difference of volume of paw before and after inflammation was swelling degree, and the swelling inhibition rate of paw (swelling inhibition rate %=(C−T)/C*100%); C=swelling rate of the control group %, and T=swelling rate of the treatment group) was calculated. This method is one of the commonly used methods for screening anti-inflammatory effects of gout drugs, and the model is stable and easy to operate.
(2) One week before the subcutaneous injection of MSU into the feet and soles of the rats, the rats were given different doses of the test drugs, and the drugs were given by gavage once a day, for seven consecutive days. The circumference of the right hind paw was marked and measured before the last administration, and the average value of the two measurements was taken as the standard. 1 h after the last administration, animals in other groups were given 50 μL of 2% MSU in addition to the blank control group, and the paw circumference was measured 1 h after the onset of inflammation. […]

Where [3] appears, read: ICR mice, 130 mg/kg by gavage once a day for seven days, 180 min after onset of inflammation.
Where [4] appears, read: ICR mice, 130 mg/kg by gavage once a day for seven days.
The mark [5] stands for this setting: mouse, carrageenan-induced paw swelling.
[6] abbreviates: mouse, carrageenan-induced paw swelling, dosage 130 mg/kg.
The mark [7] stands for this setting: SD rats, 90 mg/kg by gavage once a day for seven days, 1 h after onset of inflammation.
Setting [8] is: rat, MSU-induced paw swelling, dosage 90 mg/kg.
The mark [9] stands for this setting: SD rats, 90 mg/kg by gavage once a day for seven days.

In the case of `C[C@H]1C[C@@H]2[C@H]([C@@H](O)C[C@@]3(C)[C@H]2CC[C@]3(O)/C(CO)=N/O)[C@@]2(C)C=CC(=NO)C=C12` [Example 1, (6S,8S, 9S, 10R, 11S, 13S, 14S, 17R)-11,17-dihydroxy-17-((E)-2-hydroxy-1-(hydroxyimino)ethyl)-6,10,13-trimethyl-6,7,8,9,10,11,12,13,14,15,16,17-dodecahydro-3H-cyclopentane[α]phenanthrene-3-one oxime], the Swelling value is 0.01 cm in data set [1] (setting [3]) and 0.01 mL in data set [2] (setting [7]). The “Circumference of the paw after administration” value (from here on “Circumference of the paw”) in data set [1] (setting [4]) is on record as 1.46 cm. Besides, in data set [1] (setting [5]), the inhibition in vivo at 0.26 mg/kg stood at 10.3%. The inhibition in vivo at 13 mg/kg in data set [1] (setting [5]) was 58.1%. In addition, the inhibition in vivo at 130 mg/kg in data set [1] (setting [6]) stood at 97.4%; in data set [1] (setting [3]), 96.4%. In addition, the change in vivo at 130 mg/kg in data set [1] (setting [3]) worked out at 0.69%. The Mortality in the data set with ICR mice (4 g/kg), in the data set with ICR mice (4.91 g/kg), in the data set on ICR mice (6.14 g/kg), with ICR mice (7.68 g/kg), in the data set on ICR mice (9.6 g/kg) and with ICR mice (12 g/kg) was 0/12 throughout. In the data set with ICR mice (15 g/kg), the Mortality is 0/12. The inhibition in vivo at 90 mg/kg in data set [2] (setting [7]) is 99.7%; in data set [2] (setting [8]), 97.4%. In addition, the inhibition in vivo at 0.36 mg/kg in data set [2] (rat, MSU-induced paw swelling) is 12.1%. In addition, in data set [2] (rat, MSU-induced paw swelling), the inhibition in vivo at 1.8 mg/kg was 45.2%. Also, the inhibition in vivo at 9 mg/kg in data set [2] (rat, MSU-induced paw swelling) turned out to be 68.2%. In addition, the change in vivo at 90 mg/kg in data set [2] (setting [7]) turned out to be 0.85%. Further, the “Mean volume of paw after administration” value in data set [2] (setting [9]) stood at 1.19 mL.
As to `CC(=O)OC/C(=N\O)[C@@]1(O)CC[C@H]2[C@@H]3C[C@H](C)C4=CC(=NO)C=C[C@]4(C)[C@H]3[C@@H](O)C[C@@]21C` [Example 2, (2E)-2-((6S,8S,9S,10R,11S,13S,14S,17R)-11,17-dihydroxy-3-(hydroxyimino)-6,10,13-trimethyl-6,7,8,9,10,11,12,13,14,15,16,17-dodecahydro-3H-cyclopentane[α]phenanthrene-17-yl)-2-(hydroxyimino)ethyl acetate], the Swelling value in data set [1] (setting [3]) turned out to be 0.01 cm; in data set [2] (setting [7]), 0.04 mL. Also, the “Circumference of the paw” value in data set [1] (setting [4]) is reported as 1.43 cm. In addition, in data set [1] (setting [5]), the inhibition in vivo at 0.26 mg/kg was 15.1%. Moreover, the inhibition in vivo at 13 mg/kg in data set [1] (setting [5]) was found to be 63.1%. Moreover, the inhibition in vivo at 130 mg/kg is 96.2% in data set [1] (setting [6]) and 96.4% in data set [1] (setting [3]). The change in vivo at 130 mg/kg in data set [1] (setting [3]) is 0.7%. The Mortality in the data set with ICR mice (4 g/kg) is listed as 0/12; with ICR mice (4.91 g/kg), 0/12; in the data set with ICR mice (6.14 g/kg) it was 0/12; with ICR mice (7.68 g/kg), 0/12; with ICR mice (9.6 g/kg) it was 1/12; with ICR mice (12 g/kg), 4/12. Moreover, the Mortality in the data set with ICR mice (15 g/kg) is on record as 6/12. Further, the inhibition in vivo at 90 mg/kg in data set [2] (setting [7]) came out at 99%; in data set [2] (setting [8]), 98.2%. Moreover, the inhibition in vivo at 0.36 mg/kg in data set [2] (rat, MSU-induced paw swelling) was 15.1%. In addition, the inhibition in vivo at 1.8 mg/kg in data set [2] (rat, MSU-induced paw swelling) turned out to be 32.1%. The inhibition in vivo at 9 mg/kg in data set [2] (rat, MSU-induced paw swelling) is 52.1%. Further, the change in vivo at 90 mg/kg in data set [2] (setting [7]) was determined as 3.23%. The “Mean volume of paw after administration” value in data set [2] (setting [9]) amounted to 1.28 mL.
In the case of `CCON=C1C=C[C@@]2(C)C(=C1)[C@@H](C)C[C@@H]1[C@@H]2[C@@H](O)C[C@@]2(C)[C@H]1CC[C@]2(O)/C(CO)=N/OCC` [Example 9, (6S,8S,9S,10R,11S,13S,14S,17R,E)-17-((E)-1-(ethoxysimino)-2-hydroxyethyl)-11,17-dihydroxy-6,10,13-trimethyl-6,7,8,9,10,11,12,13,14,15,16,17-dodecahydro-3H-cyclopentane[α]phenanthrene-3-ketoO-ethyl oxime], the Mortality in the data set with ICR mice (4 g/kg), with ICR mice (4.91 g/kg), in the data set on ICR mice (6.14 g/kg), in the data set on ICR mice (7.68 g/kg), in the data set on ICR mice (9.6 g/kg) and in the data set on ICR mice (12 g/kg) was 0/12 in each case. For the same molecule, the Mortality with ICR mice (15 g/kg) was 2/12.
On to `C[C@H]1C[C@@H]2[C@H]([C@@H](O)C[C@@]3(C)[C@H]2CC[C@]3(O)C(=O)CO)[C@@]2(C)C=CC(=O)C=C12` [Methylprednisolone, methylprednisolone, reference compound], for which, in data set [1] (setting [3]), the Swelling value came out at 0.15 cm, the change in vivo at 130 mg/kg is 10.1% and the inhibition in vivo at 130 mg/kg came to 47.6%. Moreover, the “Circumference of the paw” value in data set [1] (setting [4]) came out at 1.63 cm. Besides, in data set [1] (setting [5]), the inhibition in vivo at 0.26 mg/kg came out at 12.1% and the inhibition in vivo at 13 mg/kg worked out at 31.4%. Besides, the inhibition in vivo at 130 mg/kg in data set [1] (setting [6]) amounted to 51.2%. In data set [2] (setting [7]), the inhibition in vivo at 90 mg/kg is 53.8%, the change in vivo at 90 mg/kg was found to be 152% and the Swelling value was found to be 1.87 mL. Further, in data set [2] (rat, MSU-induced paw swelling), the inhibition in vivo at 0.36 mg/kg was 12.3%, the inhibition in vivo at 1.8 mg/kg worked out at 17.6% and the inhibition in vivo at 9 mg/kg is 43.5%. For the same molecule, in data set [2] (setting [8]), the inhibition in vivo at 90 mg/kg stood at 55.4%. In addition, in data set [2] (setting [9]), the “Mean volume of paw after administration” value was 3.1 mL.
